Assays:
Type in all cases: cell-based, human
BeWo cells = assay: Expression of trophoblast stemness and differentiation genes in BeWo cells treated with EGF and chemical inhibitors
Method: FIGS. 6A to 6I show the regulation of trophoblast stemness and differentiation by antagonism between ΔNp63α and GCM1. […] ITGA6-positive term CTBs were cultured in complete TS medium for 5 days and then maintained in the same medium or incomplete medium (vehicle alone without EGF and chemical inhibitors) for an additional 7 days. Cells were subjected to immunofluorescence microscopy of ΔNp63α, GCM1, and hCGβ. […] BeWo cells were incubated in complete or incomplete TS medium supplemented with the indicated growth factor or chemical inhibitor(s) for 24 h. Cells were harvested for quantitative RT-PCR analysis of the indicated stemness or differentiation genes. […] BeWo cells were treated with the indicated concentration of VPA for 24 hours and then harvested for immunoblotting and quantitative RT-PCR analyses of GCM1, ΔNp63α, and hCGβ. […] BeWo cells were transfected with 4XCSL-luciferase in the presence or absence of 2 mM VPA for 48 hours, followed by luciferase assays. […] 293T cells were transfected with pHA-GCM1 and pNotch1IC-FLAG for 48 hours, followed by coimmunoprecipitation analysis and confocal microscopy using FLAG and HA mAbs and GCM1 Ab. […] EGFP-positive mock or Notch1IC-FLAG-expressing BeWo cells were treated with or without 50 μM FSK for 24 h, followed by immunoblotting and quantitative RT-PCR analyses of GCM1, hCGβ or HTRA4. […] BeWo cells were treated with or without 1 mM VPA in the presence or absence of 20 μM MG132 for 8 h and then subjected to immunoblotting analysis of GCM1 and Notch1IC. […] The EGFP-positive mock or Notch1IC-FLAG-expressing BeWo cells were transfected with the GCM1 promoter reporter plasmid E1bLUCGCM1-2K for 48 h and then subjected to luciferase assays. […] BeWo cells and ITGA6-positive term CTBs were cultured under normoxic or hypoxic conditions for 72 h and 7 days, respectively. Cells were then harvested for quantitative RT-PCR analysis of GCM1, ΔNp63α, HTRA4, hCGβ, and MKI67. Means and standard deviations obtained from three independent experiments are presented.
To study the effect of EGF and chemical inhibitors on trophoblast differentiation, BeWo cells were cultured in the complete TS medium or in the incomplete TS medium with EGF alone or the indicated chemical inhibitor(s) for 24 h. Cells were then harvested for quantitative RT-PCR or immunoblotting analysis of expression of ΔNp63α, eomesodermin (EOMES), E74-like factor 5 (ELF5) or GCM1 and its target genes.

JEG3 cells = assay: Immunoblotting and quantitative RT-PCR of trophoblast differentiation and stemness genes in JEG3 cells; settings: 50 μM FSK or 1 mM DB-cAMP
Text: FIGS. 2A to 2I show the physical and functional interaction between ΔNp63α and GCM1. […] First-trimester and term placental sections were stained with ΔNp63α and GCM1 antibodies (Abs) for immunofluorescence microscopy. Boxed areas are shown at higher magnification and presented below. Arrowhead, asterisk, and arrow indicate trophoblasts expressing ΔNp63α, GCM1, and both, respectively. Nuclei were stained with DAPI. Term placental sections were stained with CK7 Ab for trophoblasts and normal mouse IgG (M-IgG) and rabbit IgG (R-IgG) for negative controls. […] Mock and ΔNp63α-FLAG-expressing BeWo cells were subjected to immunoblotting (left) and quantitative RT-PCR (right) analyses of GCM1, HTRA4, and hCGβ proteins and transcripts. […] BeWo cells stably expressing scramble or GCM1 shRNA were subjected to immunoblotting (left) and quantitative RT-PCR (right) analyses of GCM1 and ΔNp63α proteins and transcripts. […] JEG3 cells were mock treated (DMSO or control buffer (CTRL)) or treated with 50 μM FSK or 1 mM DB-cAMP for 24 h, followed by immunoblotting and quantitative RT-PCR analyses of the indicated trophoblast differentiation and stemness proteins or transcripts. […]
FIGS. 3A to 3I show reciprocal regulation of GCM1 and ΔNp63α activities in trophoblast differentiation. […] Cell fusion was quantified by fusion index. […]

Notch signaling = assay: Notch reporter (4xCSL-luciferase) assay; settings: BeWo cells; 2 mM VPA, 48 hours (FIG. 6D)
Method: FIGS. 6A to 6I show the regulation of trophoblast stemness and differentiation by antagonism between ΔNp63α and GCM1. […] ITGA6-positive term CTBs were cultured in complete TS medium for 5 days and then maintained in the same medium or incomplete medium (vehicle alone without EGF and chemical inhibitors) for an additional 7 days. Cells were subjected to immunofluorescence microscopy of ΔNp63α, GCM1, and hCGβ. […] BeWo cells were incubated in complete or incomplete TS medium supplemented with the indicated growth factor or chemical inhibitor(s) for 24 h. Cells were harvested for quantitative RT-PCR analysis of the indicated stemness or differentiation genes. […] BeWo cells were treated with the indicated concentration of VPA for 24 hours and then harvested for immunoblotting and quantitative RT-PCR analyses of GCM1, ΔNp63α, and hCGβ. […] BeWo cells were transfected with 4XCSL-luciferase in the presence or absence of 2 mM VPA for 48 hours, followed by luciferase assays. […] EGFP-positive mock or Notch1IC-FLAG-expressing BeWo cells were treated with or without 50 μM FSK for 24 h, followed by immunoblotting and quantitative RT-PCR analyses of GCM1, hCGβ or HTRA4. […] Cells were then harvested for quantitative RT-PCR analysis of GCM1, ΔNp63α, HTRA4, hCGβ, and MKI67. […]

ST-TS^Term#2 cells = assay: STB differentiation from TS^Term#2 cells with cyclocreatine; settings: TS^Term#2 cells induced into STBs for 72 h with cyclocreatine (FIG. 11H)
Text: FIGS. 11A to 11I show the regulation of STB differentiation by the GCM1-CKMT1 axis. […] TS^Term#1, TS^Term#2, and TS#1^GCM1-KO cells and their derivative STBs were subjected to RNA-seq analysis. […] TS^Term#1, TS^Term#2, and TS^Term#3 cells and their derivative STBs were subjected to immunoblotting and quantitative RT-PCR analyses of GCM1, hCGβ or CKMT1 proteins and transcripts. […] Scramble control and CKMT1-knockdown TS^Term#2 cells and their derivative STBs were stained with MitoTracker and CKMT1 Ab for immunofluorescence microscopy. Scale bars in FIGS. 11D and 11E, 100 μm. […] Scramble control and CKMT1-knockdown TS^Term#2 cells and their derivative STBs were subjected to immunoblotting and quantitative RT-PCR analyses of GCM1, hCGβ, LHB or CKMT1 proteins or transcripts. In a separated experiment, cells were stained with E-cadherin Ab for cell fusion analysis. Syncytial margins are marked with a stippled line. Cell fusion efficiency was measured by fusion index or the distribution of syncytia containing varying numbers of nuclei. Scale bar, 100 μm. […] Mock (ST)- or cyclocreatine-treated TS^Term#2 cells (ST+Cyclo-Cr) were induced into STBs for 72 h, followed by immunoblotting analysis of hCGβ protein. […]

[1] = single agent in incomplete TS medium, 24 h (FIG. 6B)
[2] = VPA 24 hours, dose-dependent (FIG. 6C)
[3] = EGF alone in incomplete TS medium, 24 h (FIG. 6B)

Cc1c[nH]c(-c2cnc(NCCNc3ccc(C#N)cn3)nc2-c2ccc(Cl)cc2Cl)n1 [CHIR99021]
expression of ELF5, TEAD4, and AXIN2 (BeWo cells; [1]): upregulation
expression of WNT10B (BeWo cells; [1]): downregulation

CCCC(=O)Nc1ncnc2c1ncn2[C@@H]1O[C@@H]2COP(=O)(O)O[C@H]2[C@H]1OC(=O)CCC [DB-cAMP, dibutyryl-cAMP]
expression of ΔNp63α and trophoblast stemness genes ELF5, EOMES, and TEAD4 (JEG3 cells; 24 h (FIG. 2I)): decreased expression
expression of GCM1 and its target genes syncytin-1 (SYN1), hCGβ, HTRA4, PGF, and WNT10B (JEG3 cells; 24 h, immunoblotting and qRT-PCR (FIG. 2I)): increased expression

CCCC(CCC)C(=O)O [VPA, valproic acid]
GCM1 and hCGβ expression (BeWo cells; [2]): suppress
ΔNp63α expression (BeWo cells; [2]): increase
Notch reporter plasmid p4×CSL-luciferase activity (Notch signaling): transactivated

NC1=NCCN1CC(=O)O [cyclocreatine]
hCGβ, SYN1, and LHB expression (ST-TS^Term#2 cells): suppressed

epidermal growth factor (NSDSECPLSHDGYCLHDGVCMYIEALDKYACNCVVGYIGERCQYRDLKWWELR; not fully specified; Epidermal growth factor; UniProt P01133 971-1023, looked up) [EGF, growth factor in complete TS medium]
GCM1 and WNT10B expression (BeWo cells; [3]): suppressed
hCGβ expression (BeWo cells; [3]): enhanced
